Results as given in the NIST ThermoML archive (doi:10.1021/je060411g).
Values joined by “and” are separate entries in the source; they are usually repeats but may differ in a detail not shown here. Equal values may be shown once.

Assay: molar heat capacity at constant pressure
Conditions: 101.33 kPa

CCC(O)CC [3-pentanol]
Conditions | molar heat capacity at constant pressure
5.43 K, Crystal | 0.93 J/K/mol
5.48 K, Crystal | 0.88 J/K/mol
6.3 K, Crystal | 1.18 J/K/mol
6.63 K, Crystal | 1.23 J/K/mol
7.14 K, Crystal | 1.52 J/K/mol
7.71 K, Crystal | 1.85 J/K/mol
7.86 K, Crystal | 1.91 J/K/mol
8.49 K, Crystal | 2.31 J/K/mol
8.59 K, Crystal | 2.43 J/K/mol
9.16 K, Crystal | 2.77 J/K/mol
9.61 K, Crystal | 3.11 J/K/mol
9.92 K, Crystal | 3.43 J/K/mol
10 K, Crystal | 3.5 J/K/mol
10.7 K, Crystal | 4.04 J/K/mol
10.73 K, Crystal | 4.07 J/K/mol
11.58 K, Crystal | 4.8 J/K/mol
11.84 K, Crystal | 5.04 J/K/mol
12.49 K, Crystal | 5.7 J/K/mol
13.05 K, Crystal | 6.15 J/K/mol
13.45 K, Crystal | 6.53 J/K/mol
14.32 K, Crystal | 7.35 J/K/mol
14.43 K, Crystal | 7.58 J/K/mol
15 K, Crystal | 8.21 J/K/mol
15.45 K, Crystal | 8.54 J/K/mol
15.63 K, Crystal | 8.59 J/K/mol
16.51 K, Crystal | 9.66 J/K/mol
16.98 K, Crystal | 10.07 J/K/mol
17.58 K, Crystal | 10.69 J/K/mol
18.36 K, Crystal | 11.47 J/K/mol
18.67 K, Crystal | 11.8 J/K/mol
19.77 K, Crystal | 13.01 J/K/mol and 12.97 J/K/mol
20 K, Crystal | 13.21 J/K/mol
20.89 K, Crystal | 14.13 J/K/mol
21.2 K, Crystal | 14.45 J/K/mol
22.02 K, Crystal | 15.43 J/K/mol
22.64 K, Crystal | 16.12 J/K/mol
23.16 K, Crystal | 16.63 J/K/mol
24.11 K, Crystal | 17.73 J/K/mol
24.31 K, Crystal | 18.04 J/K/mol
25 K, Crystal | 18.82 J/K/mol
25.43 K, Crystal | 19.3 J/K/mol
25.59 K, Crystal | 19.51 J/K/mol
26.27 K, Crystal | 19.88 J/K/mol
26.44 K, Crystal | 21 J/K/mol
26.46 K, Crystal | 20.69 J/K/mol
27.41 K, Crystal | 20.88 J/K/mol
27.44 K, Crystal | 20.97 J/K/mol
28.31 K, Crystal | 21.71 J/K/mol
29.2 K, Crystal | 22.65 J/K/mol
30 K, Crystal | 23.56 J/K/mol
30.84 K, Crystal | 24.51 J/K/mol
32.44 K, Crystal | 26.27 J/K/mol
34.05 K, Crystal | 27.98 J/K/mol
35 K, Crystal | 28.96 J/K/mol
35.7 K, Crystal | 29.65 J/K/mol
37.37 K, Crystal | 30.89 J/K/mol
39.08 K, Crystal | 32.33 J/K/mol
40 K, Crystal | 33.19 J/K/mol
40.8 K, Crystal | 33.94 J/K/mol
42.52 K, Crystal | 35.56 J/K/mol
44.25 K, Crystal | 37.13 J/K/mol
45 K, Crystal | 37.81 J/K/mol
46 K, Crystal | 38.7 J/K/mol
47.76 K, Crystal | 40.3 J/K/mol
49.53 K, Crystal | 41.89 J/K/mol
50 K, Crystal | 42.29 J/K/mol
51.31 K, Crystal | 43.33 J/K/mol
53.11 K, Crystal | 44.7 J/K/mol
54.91 K, Crystal | 46.08 J/K/mol
55 K, Crystal | 46.14 J/K/mol
56.73 K, Crystal | 47.47 J/K/mol
58.56 K, Crystal | 48.81 J/K/mol
60 K, Crystal | 49.88 J/K/mol
60.4 K, Crystal | 50.18 J/K/mol
62.25 K, Crystal | 51.52 J/K/mol
64.1 K, Crystal | 52.82 J/K/mol
65 K, Crystal | 53.44 J/K/mol
65.97 K, Crystal | 54.11 J/K/mol
67.84 K, Crystal | 55.41 J/K/mol
69.72 K, Crystal | 56.67 J/K/mol
70 K, Crystal | 56.86 J/K/mol
71.6 K, Crystal | 57.95 J/K/mol
73.49 K, Crystal | 59.18 J/K/mol
75 K, Crystal | 60.13 J/K/mol
75.38 K, Crystal | 60.37 J/K/mol
77.28 K, Crystal | 61.55 J/K/mol
79.19 K, Crystal | 62.78 J/K/mol
80 K, Crystal | 63.27 J/K/mol
81.1 K, Crystal | 63.93 J/K/mol
83.01 K, Crystal | 65.07 J/K/mol
84.93 K, Crystal | 66.32 J/K/mol
85 K, Crystal | 66.36 J/K/mol
86.86 K, Crystal | 67.47 J/K/mol
88.78 K, Crystal | 68.55 J/K/mol
90 K, Crystal | 69.21 J/K/mol
90.7 K, Crystal | 69.61 J/K/mol
92.62 K, Crystal | 70.75 J/K/mol
94.54 K, Crystal | 71.9 J/K/mol
95 K, Crystal | 72.17 J/K/mol
96.47 K, Crystal | 72.98 J/K/mol
98.4 K, Crystal | 74.27 J/K/mol
98.9 K, Glass | 77.69 J/K/mol
99.63 K, Glass | 77.09 J/K/mol
100 K, Crystal | 76.23 J/K/mol
100.34 K, Crystal | 75.65 J/K/mol
100.42 K, Crystal | 75.69 J/K/mol
100.73 K, Crystal | 75.56 J/K/mol
101.47 K, Glass | 78.26 J/K/mol
101.88 K, Crystal | 76.15 J/K/mol
103.84 K, Crystal | 77.02 J/K/mol
104.37 K, Glass | 79.98 J/K/mol
105 K, Crystal | 79.46 J/K/mol
105.79 K, Crystal | 78.1 J/K/mol
107.23 K, Glass | 82.34 J/K/mol
107.74 K, Crystal | 79.42 J/K/mol
109.68 K, Crystal | 80.42 J/K/mol
110 K, Crystal | 83.89 J/K/mol
110.1 K, Glass | 84.56 J/K/mol
111.63 K, Crystal | 81.37 J/K/mol
112.97 K, Glass | 86.83 J/K/mol
113.58 K, Crystal | 82.36 J/K/mol
115.54 K, Crystal | 83.34 J/K/mol
115.84 K, Glass | 89.3 J/K/mol
117.49 K, Crystal | 84.31 J/K/mol
118.71 K, Glass | 92.11 J/K/mol
119.44 K, Crystal | 85.07 J/K/mol
120 K, Crystal | 82.36 J/K/mol
121.39 K, Crystal | 86.04 J/K/mol
121.59 K, Glass | 95.01 J/K/mol
123.34 K, Crystal | 87.47 J/K/mol
124.46 K, Glass | 99.21 J/K/mol
125.29 K, Crystal | 88.5 J/K/mol
127.24 K, Crystal | 89.59 J/K/mol
127.34 K, Glass | 104.26 J/K/mol
129.2 K, Crystal | 90.65 J/K/mol
131.15 K, Crystal | 91.7 J/K/mol
133.11 K, Crystal | 92.81 J/K/mol
135.06 K, Crystal | 93.83 J/K/mol
135.56 K, Liquid | 147.41 J/K/mol
137.01 K, Crystal | 94.96 J/K/mol
138.31 K, Liquid | 149.27 J/K/mol
138.96 K, Crystal | 95.99 J/K/mol
140.92 K, Crystal | 97.1 J/K/mol
141.2 K, Liquid | 149.61 J/K/mol
142.87 K, Crystal | 98.24 J/K/mol
144.14 K, Liquid | 149.91 J/K/mol
144.82 K, Crystal | 99.32 J/K/mol
146.77 K, Crystal | 100.55 J/K/mol
147.09 K, Liquid | 150.15 J/K/mol
148.72 K, Crystal | 101.76 J/K/mol
150.04 K, Liquid | 150.36 J/K/mol
150.67 K, Crystal | 103.08 J/K/mol
152.61 K, Crystal | 104.4 J/K/mol
